The values below come from US8420693B2, “Dipyrrole compounds, compositions, and methods for treating cancer or viral diseases” (Gemin X Pharmaceuticals Canada Inc., priority 2004, dated 2013).

Where a name gives a salt, the structure may show the parent alone.

The subject of assay [1] is human prostatic adenocarcinoma cancer PC3 cells. The experiment in a line: Growth of PC3 prostate tumors in SCID mice. In kind it is in vivo. The source says:
(§1) As used herein, the term “T/C value” refers to the value obtained when: (a) the change from baseline in average tumor volume of treated mice is divided by the change from baseline in the average tumor volume of negative control mice; and (b) the numerical value obtained in step (a) is multiplied by 100.
The resultant mice are a model for a human having prostatic cancer.
The human prostatic adenocarcinoma cancer PC3 cells were purchased from the American Type Culture Collection (ATCC). These cells were confirmed to be free of mycoplasma infection. Cells were maintained in the Roswell Park Memorial Institute (RPMI), supplemented with 10% inactivated fetal bovine serum and 1% penicillin-streptomycin-L-Glutamine, under 5% carbon dioxide (CO2) at 37° C. For prostatic-tumor induction, cells were grown lower than 70% confluence in complete medium and then collected with trypsin (Bio Whittaker, Rockland, Me., USA). Cells were then centrifuged and washed 2 times in phosphate buffer solution (PBS) and resuspended in PBS at 1.5×10^6 cells/0.1 mL. PC3 cells were then transplanted subcutaneously into the right flank of SCID mice (Charles River Laboratories, Wilmington, Mass., USA), as a suspension of tumor cells (1.5×10^6 cells in 100 μL PBS), under a laminar airflow hood. Eleven (11) days later, the size of each tumor was measured. […] Relative tumor size and volume was calculated as follows: length (cm)×[width (cm)]^2/2. There were four treatment groups of ten mice each: (a) a negative control group, (b) a positive control group and (c) a group treated with 36.25 μMoles/Kg of Compound 17 Mesylate Salt (d) a group treated with 72.5 μMoles/Kg of Compound 17 Mesylate Salt.
Treatments started on day eleven after PC3 cells transplantation. […] The negative control group was treated with vehicle alone.
Observation continued for 32 days after initial tumor implantation.

For assay [2], the system named is C33A human cervical cancer cells. As to the kind of experiment: Growth of C33A cervical tumors in CB17 SCID/SCID mice. Particulars: for T/C value: day 42. In kind it is in vivo.
Description: as §1
The resultant mice are a model for a human having cervical cancer.
The C33A human cervical cancer cells were maintained in RPMI (Hyclone, Utah, USA) supplemented with 10% inactivated fetal bovine serum (Bio-Whittaker, MD, USA) and 1% penicillin-streptomycin-L-Glutamine (Gibco, N.Y., USA), under 5% CO2 at 37° C., and passaged twice a week. The cells were grown at a confluency lower than 70% and than collected with Trypsin (Bio-Whittaker, MD, USA). The cells were then centrifuged and washed twice using phosphate buffered saline solution (PBS) and resuspended in PBS at 2×10^6 cells per 100 μl. Viability was examined by staining with trypan blue (Gibco, N.Y., USA) and only flasks with cell viability greater than 95% were used for in vivo studies.
C33A cells were injected subcutaneously into the flank of female CB17 SCID/SCID mice. Each mouse was inoculated with a suspension of 2×10^6 tumors cells per 100 μl on day zero. There were three treatment groups of ten mice each: (a) a negative control group, (b) a group treated with Compound 22 MS and (c) a group treated with Compound 37 MS.
Treatments started on day twenty eight after C33A cells transplantation. […] The negative control group was treated with vehicle alone. The injection volume for Compound treated groups and the negative control group was 100 μl.
Observation continued for 51 days after initial tumor implantation.

Assay [3] has as its system C33A cervical carcinoma cells. The experiment in a line: Cancer cell viability by cellular ATP levels (ViaLight), C33A. It is filed as cell-based. The following applies: Homo sapiens, C-33-A, 72 h, 3 days of incubation, ATP levels relative to untreated control. How it is done: (§2) Selected cell lines included C33A cervical carcinoma cells and H1299 human non-small cell lung cancer-cells (American Type Culture Collection, Manassas, Va. USA), which were cultured in the media recommended by the American Type Culture Collection. The cells lines were plated in 96-well microtiter plates (PerkinElmer Life Sciences Inc, Boston, Mass., USA) at a confluency that allowed them to reach confluence after 4 days of growth. One day after plating, the cells were treated with various concentrations of Compounds. Stock solutions of the Compounds were prepared in dimethyl sulfoxide (Sigma-Aldrich Inc., St. Louis, Mo., USA), diluted in the recommended media and then added to the cells. The total dimethyl sulfoxide on the cells was 0.1%. After 3 days of incubation the ATP levels in the cells were quantified using a luminescent ViaLight detection system (Bio-Whittaker, MD, USA). The results were plotted relative to untreated control cells, which were set at a value of 100. The IC50s were determined using a best-fit sigmoidal dose response curve with variable slope.

Assay [4] relates to H1299 human non-small cell lung cancer-cells. The experiment in a line: Cancer cell viability by cellular ATP levels (ViaLight), H1299. In kind it is cell-based. The following applies: NCI-H1299, 72 h, 3 days of incubation, ATP levels relative to untreated control. As to the method:
as §2

The mark [5] stands for this setting: 2.6 mg/kg iv once a day for five days.
[6] abbreviates: 10 mg/kg iv once a day for five days.

On to `COC1=CC(c2ccc(OC)c(OC)c2)=NC1=Cc1[nH]c(C)cc1C` [Compound 17 Mesylate Salt, 2-((3-methoxy-5-(3,4-dimethoxyphenyl)-2H-pyrrol-2-ylidene)methyl)-3,5-dimethyl-1H-pyrrole], for which the “reduction in tumor growth compared to mice treated with vehicle only” value (shortened to “reduction in tumor growth”) is given as “did not result in a statistical significant reduction in tumor growth” in assay [1] (36.25 μMoles/Kg iv once a day for five days); “statistically significant (p<0.01) reduction in tumor growth” in assay [1] (72.5 μMoles/Kg iv once a day for five days, days 29 and 32). The T/C value in assay [1] (36.25 μMoles/Kg iv once a day for five days, day 29) was determined as 53%; in assay [1] (36.25 μMoles/Kg iv once a day for five days, day 32), 52%; in assay [1] (72.5 μMoles/Kg iv once a day for five days, day 29) it was 18%; in assay [1] (72.5 μMoles/Kg iv once a day for five days, day 32), 22%.
On to `COC1=CC(c2cnn(Cc3ccccc3)c2)=NC1=Cc1[nH]c(C)cc1C` [Compound 37 MS, 1-benzyl-4-(4-methoxy-5-((3,5-dimethyl-1H-pyrrol-2-yl)methylene)-5H-pyrrol-2-yl)-1H-pyrazole], for which, in assay [2] (setting [5]), the “reduction in tumor growth” value is recorded as “statistically significant (p<0.0001) reduction in tumor growth” and the T/C value turned out to be 31%.
In the case of `COC1=CC(c2ccc(N(C)C)cc2)=NC1=Cc1[nH]c(C)cc1C` [Compound 22 MS, 4-(4-methoxy-5-((3,5-dimethyl-1H-pyrrol-2-yl)methylene)-5H-pyrrol-2-yl)-N,N-dimethylbenzenamine], in assay [2] (setting [6]), the “reduction in tumor growth” value is “statistically significant (p=0.0024) reduction in tumor growth” and the T/C value is 34%.
For the compound `COC1=CC(c2ccc(OC)cc2C=O)=NC1=Cc1[nH]c(C)cc1C` [Compound 11, 5-methoxy-2-(4-methoxy-5-((3,5-dimethyl-1H-pyrrol-2-yl)methylene)-5H-pyrrol-2-yl)benzaldehyde], the concentration for half-maximal inhibition (IC50) came out at 7 µM in assay [3] and 12.5 µM in assay [4].
Take `COC1=CC(c2ccc3cc(OC)ccc3c2)=NC1=Cc1[nH]c(C)cc1C` [Compound 27, 2-((3-methoxy-5-(2-methoxynaphthalen-6-yl)-2H-pyrrol-2-ylidene)methyl)-3,5-dimethyl-1H-pyrrole]: the IC50 turned out to be 7 µM in assay [3] and 6.26 µM in assay [4].
On the same counts, the results for `COC1=CC(c2ccc3c(c2)OCCN3C)=NC1=Cc1[nH]c(C)cc1C` [Compound 34, 3,4-dihydro-7-(4-methoxy-5-((3,5-dimethyl-1H-pyrrol-2-yl)methylene)-5H-pyrrol-2-yl)-4-methyl-2H-benzo[b][1,4]oxazine] are 1.23 µM and 1.24 µM.
For the compound `COC1=CC(c2ccc(OC)nc2)=NC1=Cc1[nH]c(C)cc1C` [Compound 42, 2-methoxy-5-(4-methoxy-5-((3,5-dimethyl-1H-pyrrol-2-yl)methylene)-5H-pyrrol-2-yl)pyridine], the figures for the 50% inhibitory concentration (IC50) in assay [3] and in assay [4] were 7.9 µM and 13.9 µM, respectively.
Regarding `COC1=CC(c2ccc(OC)c(O)c2)=NC1=Cc1[nH]c(C)cc1C` [Compound 38, 2-methoxy-5-(4-methoxy-5-((3,5-dimethyl-1H-pyrrol-2-yl)methylene)-5H-pyrrol-2-yl)phenol], the IC50 in assay [3] turned out to be 2 µM; in assay [4], 6.69 µM.
Take `COC1=CC(c2ccccc2)=NC1=Cc1[nH]c(C)cc1C` [Compound 1, 3-methoxy-2-((3,5-dimethyl-1H-pyrrol-2-yl)methylene)-5-phenyl-2H-pyrrole]: the IC50 in assay [3] and in assay [4] was 10 µM each time.
On to `COC1=CC(c2ccc(OC)c(OC)c2)=NC1=Cc1[nH]c(C)cc1C` [Compound 17, 2-((3-methoxy-5-(3,4-dimethoxyphenyl)-2H-pyrrol-2-ylidene)methyl)-3,5-dimethyl-1H-pyrrole], for which the IC50 turned out to be 0.21 µM in assay [3] and 0.58 µM in assay [4].
As to `COC1=CC(c2ccc(Cl)cc2)=NC1=Cc1[nH]c(C)cc1C` [Compound 2, 5-(4-chlorophenyl)-3-methoxy-2-((3,5-dimethyl-1H-pyrrol-2-yl)methylene)-2H-pyrrole], the figures for the 50% inhibitory concentration (IC50) in assay [3] and in assay [4] were 2.5 µM and 10 µM, respectively.
On the same counts, the results for `COC1=CC(c2cc3ccccc3s2)=NC1=Cc1[nH]c(C)cc1C` [Compound 10, 2-((5-(benzo[b]thiophen-2-yl)-3-methoxy-2H-pyrrol-2-ylidene)methyl)-3,5-dimethyl-1H-pyrrole] are 3 µM and 4.6 µM.
On to `COC1=CC(c2ccoc2)=NC1=Cc1[nH]c(C)cc1C` [Compound 14, 2-((5-(furan-3-yl)-3-methoxy-2H-pyrrol-2-ylidene)methyl)-3,5-dimethyl-1H-pyrrole], for which the IC50 in assay [3] came out at 0.7 µM; in assay [4] it was 6.5 µM.
On the same counts, the results for `COC1=CC(c2cc(OC)ccc2OC)=NC1=Cc1[nH]c(C)cc1C` [Compound 19, 2-((3-methoxy-5-(2,5-dimethoxyphenyl)-2H-pyrrol-2-ylidene)methyl)-3,5-dimethyl-1H-pyrrole] are 20 µM and 20 µM.
Take `COC1=CC(c2ccc(OC)c(OC)c2OC)=NC1=Cc1[nH]c(C)cc1C` [Compound 18, 2-((3-methoxy-5-(2,3,4-trimethoxyphenyl)-2H-pyrrol-2-ylidene)methyl)-3,5-dimethyl-1H-pyrrole]: the results for the IC50 in assay [3] and in assay [4] were 2 µM and 4 µM, respectively.
In the same order, the values of `COC1=CC(c2cccnc2F)=NC1=Cc1[nH]c(C)cc1C` [Compound 40, 2-fluoro-3-(4-methoxy-5-((3,5-dimethyl-1H-pyrrol-2-yl)methylene)-5H-pyrrol-2-yl)pyridine] are 8.55 µM and 20 µM.
